From patent US20220087996A1, “Histone acetylase p300 inhibitor and use thereof” (HINOVA PHARMACEUTICALS INC., priority 2018, published 2022) come the findings set out here.

Broadly, the IC50 is the concentration that gives 50% inhibition.

Structures are written as SMILES.

Assay [1] deals with T1, histone acetylase p300 (Homo sapiens, UniProt Q09472).
T1 construct: purchased BPS
Description: Inhibitory activity on histone acetylase p300 (radioisotope FlashPlate). The class given is biochemical. To be noted: enzyme 0.2 nM, peptide substrate 600 nM, [3H]-Ac-CoA 250 nM; read-out: IC50 against P300. The text has this: Using the radioisotope FlashPlate technology, the half inhibitory concentration (IC50) of the compound according to the present invention was detected against histone acetylase p300 (purchased from BPS). […] Under the catalysis of histone acetylase p300, [3H]—Ac group in the isotope-labeled [3H]-Ac-CoA was transferred to the biotinylated histone polypeptide substrate (purchased from GL Biochem Ltd.), and then the biotinylated histone peptide substrate bound to the streptavidin on the FlashPlate board, so that the isotope was close enough to the FlashPlate board. Thus, the radiation energy of isotope could convert the scintillation fluid coated on the FlashPlate board into photons, that was able to be detected. Detailed procedures were as follows:
• 1× reaction buffer: 50 mM Tris-HCl, pH 7.5; 0.01% Tween-20 • Reaction stop solution: 750 μM Ac-CoA solution
Each test compound was dissolved into 10 mM with 100% DMSO, and then each compound was diluted to the desired concentration in Echo 384-well plate. […] 200 nl of 100% DMSO was transferred into the well as the negative control.
p300 was added to 1× reaction buffer to form a 2× enzyme solution (the final concentration of enzyme being 0.2 nM).
The peptide substrate and [3H]-Ac-CoA were added to the 1-fold reaction buffer, to form a 2-fold substrate solution (the final concentration of the substrate being 600 nM and 250 nM, respectively).
10 μl of 2-fold enzyme solution was added to the wells of 384-well reaction plate. […] The plate was centrifuged at 1000 rpm for 1 min and incubated at room temperature for 15 min.
10 μl of 2-fold substrate solution was added to each well of 384-well reaction plate. The plate was centrifuged at 1000 rpm for 1 min, and then reacted at 25° C. for 60 min.
10 μl of reaction stop solution was added to each well of 384-well reaction plate to stop the reaction. 25 μL solution was collected from each well of the test plate and transferred to Flashplate, that was placed at room temperature for 1 h. Then, Flashplate plate was washed three times with 0.1% Tween-20 solution.
4) Reading Data with MicroBeta 2
The data were copied from Microbeta 2. […] The maximum value is the conversion rate of the control DMSO, and the minimum value is the conversion rate of the control without enzyme activity.
The data were imported into Graph Pad Prism5, and the formula “log(inhibitor) vs. response−Variable slope” was used to perform curve fitting, to obtain the half inhibitory concentration (IC50).

Assay [2] concerns CWR22RV1 cells. Description: Inhibition of proliferation of CWR22RV1 cells (CCK-8). The class given is cell-based, human. To be noted: 6 days culture. A digest of the protocol:
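Proliferation read-out was CCK-8 absorbance at 450 nm after 2.5 h, following 6-day culture with compound. Each well held 1500 CWR22RV1 cells; the 3-fold, 9-point series started at a final 10 μM in 0.1% DMSO. Dose-response-inhibition fit gave the IC50.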

Assay [3] relates to CWR22RV1 cells. Description: Compound in combination with CDK4/6 inhibitor palbociclib on proliferation of CWR22RV1 cells. The class given is cell-based, human. To be noted: Homo sapiens, CWR22Rv1, single agent; read-out: IC50 against the activity of CWR22RV1 cells. On the procedure: The IC50 values (nM) of the compound according to the present invention, palbociclib, and the combination of the compound according to the present invention and palbociclib against CWR22RV1 cell proliferation were tested and calculated, and the detailed procedures were as follows:
(§1) 1) CWR22RV1 cells were subcultured in cell culture medium, and the cells in good growth condition were seeded in a 96-well plate, 60 μL for each well, and the cell number in each well was 2000. The plate was incubated overnight in a 37° C., 5% CO2 cell incubator. 2) The drug was prepared as 10 mM stock solution with dimethyl sulfoxide (DMSO). Prior to use, the stock solution was diluted 3 times with DMSO, and then further diluted as 3-fold gradient to obtain 9 concentration gradients. Then, each concentration of compound was diluted 200 times with the culture solution (ensuring that the DMSO concentration in the culture system was 0.1%), and two replicate wells were set for each concentration. 20 μL of diluted compound solution was added to the cell culture well (with final concentrations of 10 μM, 3.3 μM, 1.1 μM . . . ). Palbociclib was diluted with culture medium to 500 nM, 150 nM, 50 nM, 5 nM, and 20 μL diluted compound solution was added to the corresponding cell culture wells (with a final concentration of 100 nM, 30 nM, 10 nM, 1 nM). The plate was gently shaken to mix. In addition, 3 negative control wells containing only cells and 3 blank control wells containing only culture medium were included (6 wells were each added 20 μL DMSO diluted 200 times with culture medium).
(§2) (1) After culturing for 6 days, 10 μL CCK-8 was added to each well, and the plate was continually cultured in a 37° C., 5% CO2 cell incubator for 2.5 h. (2) The absorbance (OD value) was detected at 450 nm using a multifunctional microplate reader. (3) The data were analyzed by Dose-response-inhibition equation in the software GraphPad Prism6, and the IC50 value was obtained.

The test system of assay [4] is MCF-7 cells. Description: Compound in combination with CDK4/6 inhibitor palbociclib against proliferation of MCF-7 cells. The class given is cell-based. To be noted: Homo sapiens, MCF7, single agent. On the procedure: as §1, §2
Using the same method as Experimental example 4, CWR22RV1 cells were replaced with MCF-7 cells, and the IC50 values (nM) of the compound according to the present invention, palbociclib, as well as the combination of the compound according to the present invention and palbociclib against the proliferation of MCF-7 cells w ere tested and calculated.

Where [5] appears, read: Homo sapiens, CWR22Rv1, 144 h, read-out: IC50 against CWR22RV1 cells.
Setting [6] is: Homo sapiens, CWR22Rv1, 144 h, read-out: IC50 against CWR22RV1 cells (text).

T1 sequence (Q09472 whole entry): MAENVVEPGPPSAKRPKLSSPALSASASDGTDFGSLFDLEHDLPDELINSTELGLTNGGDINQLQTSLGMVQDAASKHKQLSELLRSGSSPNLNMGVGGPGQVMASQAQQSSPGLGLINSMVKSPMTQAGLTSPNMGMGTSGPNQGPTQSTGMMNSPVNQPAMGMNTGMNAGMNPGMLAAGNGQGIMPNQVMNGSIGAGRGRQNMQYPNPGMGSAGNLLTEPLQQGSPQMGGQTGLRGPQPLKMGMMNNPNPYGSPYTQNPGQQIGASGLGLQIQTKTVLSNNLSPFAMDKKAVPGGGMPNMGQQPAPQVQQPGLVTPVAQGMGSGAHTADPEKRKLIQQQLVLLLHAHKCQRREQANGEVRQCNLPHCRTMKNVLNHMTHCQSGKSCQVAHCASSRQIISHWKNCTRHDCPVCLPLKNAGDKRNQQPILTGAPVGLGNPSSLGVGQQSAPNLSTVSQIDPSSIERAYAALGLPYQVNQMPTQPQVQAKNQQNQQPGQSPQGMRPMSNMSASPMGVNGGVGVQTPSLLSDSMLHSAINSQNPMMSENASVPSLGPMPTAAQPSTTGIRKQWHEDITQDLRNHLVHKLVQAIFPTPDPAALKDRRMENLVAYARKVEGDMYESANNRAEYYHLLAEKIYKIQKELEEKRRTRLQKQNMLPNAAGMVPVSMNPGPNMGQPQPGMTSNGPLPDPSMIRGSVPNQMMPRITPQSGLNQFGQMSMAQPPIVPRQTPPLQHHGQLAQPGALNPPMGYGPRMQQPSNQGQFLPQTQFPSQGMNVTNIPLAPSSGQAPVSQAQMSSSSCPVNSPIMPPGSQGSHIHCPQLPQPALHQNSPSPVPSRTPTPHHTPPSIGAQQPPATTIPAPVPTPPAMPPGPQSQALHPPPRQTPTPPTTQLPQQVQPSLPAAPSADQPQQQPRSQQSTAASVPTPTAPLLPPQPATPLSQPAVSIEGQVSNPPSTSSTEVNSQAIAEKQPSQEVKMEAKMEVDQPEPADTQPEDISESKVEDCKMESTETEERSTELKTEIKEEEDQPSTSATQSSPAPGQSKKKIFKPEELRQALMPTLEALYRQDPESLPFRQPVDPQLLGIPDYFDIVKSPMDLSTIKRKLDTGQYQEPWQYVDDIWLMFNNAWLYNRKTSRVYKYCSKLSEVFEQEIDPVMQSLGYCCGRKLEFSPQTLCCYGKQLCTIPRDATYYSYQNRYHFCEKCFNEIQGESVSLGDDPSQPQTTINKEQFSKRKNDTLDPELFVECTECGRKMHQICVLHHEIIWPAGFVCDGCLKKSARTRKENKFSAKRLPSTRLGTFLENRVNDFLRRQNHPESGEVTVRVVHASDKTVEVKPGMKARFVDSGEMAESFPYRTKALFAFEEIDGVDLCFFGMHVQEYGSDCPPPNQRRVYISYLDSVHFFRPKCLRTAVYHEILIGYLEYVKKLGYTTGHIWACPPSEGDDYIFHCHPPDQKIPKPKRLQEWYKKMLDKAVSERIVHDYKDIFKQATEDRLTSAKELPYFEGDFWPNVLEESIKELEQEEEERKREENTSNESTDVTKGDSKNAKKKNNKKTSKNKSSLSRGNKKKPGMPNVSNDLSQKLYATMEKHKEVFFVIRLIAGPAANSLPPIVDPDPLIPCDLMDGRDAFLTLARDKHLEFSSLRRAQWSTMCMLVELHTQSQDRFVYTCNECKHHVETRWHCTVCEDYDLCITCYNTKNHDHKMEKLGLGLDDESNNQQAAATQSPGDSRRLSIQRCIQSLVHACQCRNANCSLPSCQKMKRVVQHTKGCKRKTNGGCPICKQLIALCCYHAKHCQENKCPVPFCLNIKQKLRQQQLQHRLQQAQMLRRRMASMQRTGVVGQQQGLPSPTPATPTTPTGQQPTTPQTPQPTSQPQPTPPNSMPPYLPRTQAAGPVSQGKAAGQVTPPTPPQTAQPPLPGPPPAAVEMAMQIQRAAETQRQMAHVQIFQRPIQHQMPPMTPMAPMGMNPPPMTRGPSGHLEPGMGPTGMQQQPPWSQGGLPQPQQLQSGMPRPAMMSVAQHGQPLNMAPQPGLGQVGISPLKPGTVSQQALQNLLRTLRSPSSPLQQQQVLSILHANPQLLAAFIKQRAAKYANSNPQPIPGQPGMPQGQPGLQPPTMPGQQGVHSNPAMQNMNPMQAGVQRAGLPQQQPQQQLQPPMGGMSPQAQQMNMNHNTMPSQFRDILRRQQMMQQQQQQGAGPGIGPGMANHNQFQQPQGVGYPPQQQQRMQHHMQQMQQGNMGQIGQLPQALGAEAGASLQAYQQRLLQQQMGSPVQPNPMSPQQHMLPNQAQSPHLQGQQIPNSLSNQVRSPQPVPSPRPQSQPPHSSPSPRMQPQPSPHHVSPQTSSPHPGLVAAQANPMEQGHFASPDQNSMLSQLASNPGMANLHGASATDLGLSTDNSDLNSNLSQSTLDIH

As for `CNC(=O)Nc1ccc2c(c1)C1(CC1)CC21OC(=O)N(CC(=O)N(Cc2ccc(F)cc2)[C@@H](C)C(F)(F)F)C1=O` (stereo partly drawn) [Example 98, 2-(5-(3-methylureido)-2′,4′-dioxo-2,3-dihydrospiro[cyclopropane-indene-1,5′-oxazole]-3′-yl)-N-(4-fluorobenzyl)-N—((S)-1,1,1-trifluoropropan-2-yl)acetamide], the concentration for half-maximal inhibition (IC50) in assay [1] is 0.026 µM; in assay [2] (setting [5]), 0.5 to 2 µM.
In the case of `CNC(=O)Nc1ccc2c(c1)CC[C@@]21OC(=O)N(CC(=O)N2[C@@H](C)CC[C@H]2c2ccc(F)cc2F)C1=O` [Example 217, 1-((R)-3′-(2-((2S,5S)-2-(2,4-difluorophenyl)-5-methylpyrrolidin-1-yl)-2-oxoethyl)-2′,4′-dioxo-2,3-dihydrospiro[indene-1,5′-oxazolidine]-5-yl)-3-methylurea], the IC50 in assay [1] was 0.0055 µM; in assay [2] (setting [5]), at most 0.5 µM; in assay [2] (setting [6]) it was at most 0.5 µM.
With `CC[C@H]1CC[C@@H](c2ccc(F)cc2)N1C(=O)CN1C(=O)O[C@@]2(CCc3cc(NC(=O)NC)ccc32)C1=O` [Example 43, 1-((R)-3′-(2-((2S,5S)-2-ethyl-5-(4-fluorophenyl)pyrrolidin-1-yl)-2-oxoethyl)-2′,4′-dioxo-2,3-dihydrospiro[indene-1,5′-oxazolidine]-5-yl)-3-methylurea], the IC50 was 0.0031 µM in assay [1], at most 0.5 µM in assay [2] (setting [5]) and at most 0.5 µM in assay [2] (setting [6]).
For `CNC(=O)Nc1ccc2c(c1)CC[C@@]21OC(=O)N(CC(=O)N2C(C3CC3)CC[C@H]2c2ccc(F)cc2)C1=O` (stereo in doubt) [Example 380, 1-((R)-3′-(2-((2S,5S)-2-cyclopropyl-5-(4-fluorophenyl)pyrrolidin-1-yl)-2-oxoethyl)-2′,4′-dioxo-2,3-dihydrospiro[indene-1,5′-oxazolidine]-5-yl)-3-methylurea], the IC50 is 0.0051 µM in assay [1], at most 0.5 µM in assay [2] (setting [5]) and at most 0.5 µM in assay [2] (setting [6]).
Take `CNC(=O)Nc1ccc2c(c1)CC[C@@]21OC(=O)N(CC(=O)N2C(c3ccc(F)cc3C)CC[C@H]2C)C1=O` (some centres unmarked) [Example 21]: the 50% inhibitory concentration (IC50) was 0.017 µM in assay [1] and at most 0.5 µM in assay [2] (read-out: IC50 against CWR22RV1 cells).
With `CCC1CC[C@@H](C2CCC(F)(F)CC2)N1C(=O)CN1C(=O)O[C@@]2(CCc3cc(NC(=O)NC)ccc32)C1=O` (stereo in doubt) [Example 212, 1-((R)-3′-(2-((2S,5R)-2-(4,4-difluorocyclohexyl)-5-ethyl-pyrrolidin-1-yl)-2-oxoethyl)-2′,4′-dioxo-2,3-dihydrospiro[indene-1,5′-oxazolidine]-5-yl)-3-methylurea], the values for the IC50 in assay [1], in assay [2] (setting [5]) and in assay [2] (setting [6]) were 0.0093 µM, at most 0.5 µM and at most 0.5 µM, respectively.
Consider `CC(=O)c1c(C)c2cnc(Nc3ccc(N4CCNCC4)cn3)nc2n(C2CCCC2)c1=O` [palbociclib, reference compound], for which the IC50 in assay [3] was found to be 0.066 µM; in assay [4], 0.034 µM.
For `CNC(=O)Nc1ccc2c(c1)CC[C@@]21OC(=O)N(CC(=O)N2CCC[C@H]2c2ccccc2)C1=O` [Example 225, 1-((R)-2′,4′-dioxo-3′-(2-oxo-2-((S)-2-phenylpyrrolidin-1-yl)ethyl)-2,3-dihydrospiro[indene-1,5′-oxazolidine]-5-yl)-3-methylurea], the IC50 in assay [1] is 0.067 µM; in assay [2] (setting [5]), 0.5 to 2 µM.
